# Measured values as given in patent US11147272B2, “Pyridone compounds and agricultural and horticultural fungicides comprising the same as active ingredients” (MITSUI CHEMICALS AGRO, INC., priority 2017, dated 2021).
# Legend:
# Alternaia brassicicola = assay: Test Example C: Alternaria sooty spot on cabbage; assay type: in vivo
# Excerpt: Seeds of a test plant (cabbage variety: Shikidori) were planted and cultivated until the cotyledons extended.
# <Control Value> Control value=100{1−(n/3)}
# Plasmopara viticola = assay: Test Example G: Downy mildew on vine; details: 7 to 10 days after inoculation
# Magnaporthe grisea = assay: whole plant or invertebrate; assay type: in vivo
# Puccinia recondita = assay: Test Example E: Brown rust on wheat; assay type: in vivo
# Phytophthora infestans = assay: whole plant or invertebrate; assay type: in vivo
# [1] = system: Blumeria graminis f. sp. hordei; assay: Test Example D: Powdery mildew on barley
# [2] = system: Colletotrichum orbiculare; assay: Test Example H: Anthracnose on cucumber; details: 6 to 10 days after inoculation
# Botrytis cinerea = assay: Test Example B: Gray mold on tomato
# [3] = 250 ppm drug solution sprayed on test plant
# [4] = 250 ppm drug solution sprayed (2.5 ml/pot), grape Neomuscat
# [5] = 250 ppm drug solution sprayed (2.5 ml/pot), cucumber Sagami Hanjiro
Compound,"Test C control value (Alternaia brassicicola; Alternaria sooty spot on cabbage, control value class)","Test G control value (Plasmopara viticola; Downy mildew on vine, 250 ppm spray)","Test A control value (Magnaporthe grisea; Blast on rice, control value class)","Test E control value (Puccinia recondita; Brown rust on wheat, control value class)","Test F control value (Phytophthora infestans; Late blight on tomato, control value class)","Test D control value ([1]; Powdery mildew on barley, control value class)","Test H control value ([2]; Anthracnose on cucumber, 250 ppm spray)","Test B control value (Botrytis cinerea; Gray mold on tomato, control value class)",Test C control value (Alternaia brassicicola; [3]),Test G control value (Plasmopara viticola; [4]),Test A control value (Magnaporthe grisea; [3]),Test E control value (Puccinia recondita; [3]),Test F control value (Phytophthora infestans; [3]),"Test D control value [1, 3]","Test H control value [2, 5]",Test B control value (Botrytis cinerea; [3])
CCCc1ccc(=O)n(CC)c1-c1c(F)cc(F)cc1F [compound 372],H (more than 50% control value),H (more than 50% control value),L (50% or less control value),H (more than 50% control value),L (50% or less control value),H (more than 50% control value),H (more than 50% control value),H (more than 50% control value),–,–,–,–,–,–,–,–
CCC1=C(c2c(F)cc(F)cc2F)N(CC)C(=O)CC1 [compound 373],–,–,–,–,–,–,–,–,H (more than 50% control value),L (50% or less control value),L (50% or less control value),L (50% or less control value),L (50% or less control value),L (50% or less control value),H (more than 50% control value),L (50% or less control value)
CCc1cc(Cl)c(=O)n(C)c1-c1ccc(OC)cc1C [compound 374],–,–,–,–,–,–,–,–,H (more than 50% control value),L (50% or less control value),L (50% or less control value),H (more than 50% control value),L (50% or less control value),H (more than 50% control value),L (50% or less control value),H (more than 50% control value)
CCc1cc(Br)c(=O)n(C)c1-c1ccc(OC)cc1C [compound 375],–,–,–,–,–,–,–,–,H (more than 50% control value),H (more than 50% control value),L (50% or less control value),H (more than 50% control value),H (more than 50% control value),H (more than 50% control value),L (50% or less control value),H (more than 50% control value)
CCCc1cc(Cl)c(=O)n(CC)c1-c1ccc(OC)cc1Br [compound 376],–,–,–,–,–,–,–,–,H (more than 50% control value),H (more than 50% control value),H (more than 50% control value),H (more than 50% control value),H (more than 50% control value),H (more than 50% control value),H (more than 50% control value),H (more than 50% control value)
CCc1ccc(=O)n(CC)c1-c1c(F)cc(F)cc1F [compound 377],–,–,–,–,–,–,–,–,L (50% or less control value),L (50% or less control value),L (50% or less control value),L (50% or less control value),L (50% or less control value),H (more than 50% control value),H (more than 50% control value),L (50% or less control value)
CCCc1cc(Cl)c(=O)n(CC)c1-c1c(F)cc(F)cc1F [compound 378],–,–,–,–,–,–,–,–,H (more than 50% control value),L (50% or less control value),H (more than 50% control value),H (more than 50% control value),L (50% or less control value),H (more than 50% control value),H (more than 50% control value),H (more than 50% control value)
CCn1c(-c2c(F)cc(F)cc2F)c(C)cc(I)c1=O [compound 379],–,–,–,–,–,–,–,–,H (more than 50% control value),L (50% or less control value),L (50% or less control value),H (more than 50% control value),L (50% or less control value),H (more than 50% control value),H (more than 50% control value),H (more than 50% control value)
CCn1c(-c2c(F)cc(OC)cc2F)c(C)cc(I)c1=O [compound 380],–,–,–,–,–,–,–,–,H (more than 50% control value),L (50% or less control value),H (more than 50% control value),H (more than 50% control value),H (more than 50% control value),H (more than 50% control value),H (more than 50% control value),H (more than 50% control value)
CCn1c(-c2c(F)cc(F)cc2F)c(C(C)(O)C(C)C)cc(Br)c1=O (stereo not shown) [compound 381],–,–,–,–,–,–,–,–,H (more than 50% control value),H (more than 50% control value),H (more than 50% control value),H (more than 50% control value),H (more than 50% control value),H (more than 50% control value),H (more than 50% control value),H (more than 50% control value)
CCCc1cc(Br)c(=O)n(CC)c1-c1ccc(OC)cc1Br [compound 382],–,–,–,–,–,–,–,–,H (more than 50% control value),H (more than 50% control value),H (more than 50% control value),H (more than 50% control value),H (more than 50% control value),L (50% or less control value),H (more than 50% control value),H (more than 50% control value)
CCCc1ccc(=O)n(CC)c1-c1c(F)cc(OC)cc1F [compound 383],–,–,–,–,–,–,–,–,H (more than 50% control value),H (more than 50% control value),H (more than 50% control value),H (more than 50% control value),L (50% or less control value),H (more than 50% control value),H (more than 50% control value),H (more than 50% control value)
CCCc1cc(Cl)c(=O)n(CC)c1-c1c(F)cc(OC)cc1F [compound 384],–,–,–,–,–,–,–,–,H (more than 50% control value),H (more than 50% control value),H (more than 50% control value),H (more than 50% control value),L (50% or less control value),H (more than 50% control value),H (more than 50% control value),H (more than 50% control value)
CCCc1cc(Br)c(=O)n(CC)c1-c1c(F)cc(OC)cc1F [compound 385],–,–,–,–,–,–,–,–,H (more than 50% control value),H (more than 50% control value),H (more than 50% control value),H (more than 50% control value),L (50% or less control value),H (more than 50% control value),H (more than 50% control value),H (more than 50% control value)
CCc1cc(Cl)c(=O)n(CC)c1-c1c(F)cc(F)cc1F [compound 386],–,–,–,–,–,–,–,–,H (more than 50% control value),H (more than 50% control value),H (more than 50% control value),H (more than 50% control value),L (50% or less control value),H (more than 50% control value),H (more than 50% control value),H (more than 50% control value)
CCc1cc(Br)c(=O)n(CC)c1-c1c(F)cc(F)cc1F [compound 387],–,–,–,–,–,–,–,–,H (more than 50% control value),H (more than 50% control value),H (more than 50% control value),H (more than 50% control value),L (50% or less control value),H (more than 50% control value),H (more than 50% control value),H (more than 50% control value)
CCc1ccc(=O)n(CC)c1-c1c(F)cc(OC)cc1F [compound 388],–,–,–,–,–,–,–,–,H (more than 50% control value),L (50% or less control value),H (more than 50% control value),H (more than 50% control value),L (50% or less control value),L (50% or less control value),H (more than 50% control value),H (more than 50% control value)
